US20140127185A1, “METHODS AND COMPOSITIONS USING NEUROPROTECTIVE STEROIDS AND THROMBOLYTIC AGENTS” (priority 2012, published 2014)

Experiments:
[1] = tested on: blood-brain barrier (BBB); test: BBB disruption: serum IgG in ischemic cortex by Western blot; type: in vivo, rat; details: 24 hours after ischemic injury and tPA treatment
[2] = tested on: MMP-9; test: MMP-9 levels in bEND3 cells exposed to H/R and tPA; type: cell-based, mouse; details: bEND3 cells exposed to H/R and tPA for 9 hours; progesterone pretreatment
Procedure: The bEnd 3 cells grown to confluence on coverslips are subjected to the indicated treatments. For […], cells are washed three times with PBS, fixed in 3% paraformaldehyde for 10 minutes, permeabilized with 02% Triton X-100 in PBS for 10 minutes and blocked with 10% BSA and 0.1% Triton X-100 in PBS for 1 hour. After washing with PBS, the monolyers are incubated with a primary antibody for occludin (Invitrogen, 1:200) and MMP-9 (Abeam, Mass., USA, 1:200) overnight at 4° C. The cell monolayers are then washed 3 times with PBS and incubated with Alexa Fluor 488 anti-rabbit and orange anti-mouse (Molecular Probes, Eugene, Oreg.) for 1 hour. After washing in PBS, the coverslips are mounted on glass slides with Vectasheild with dapi (Vecta Laboratories).
(§1) To mimic ischemia-like conditions in vitro, immortalized mouse brain endothelial (bEND3) cells were exposed to 6 hours of hypoxia and 3 hours of reoxygeneation with or without the administration of tPA at a dose of 20 μ/ml. […] BBB integrity was evaluated by transendothelial membrane electrical resistance (TEER) measurement, MMP-9 activity, and the alteration of tight junction proteins following in vitro H/R injury.
To directly determine MMP-9 activity after ischemia, proteolytic activity of MMP-9 was measured using a fluorescence resonance energy transfer peptide. […]

[3] = tested on: occludin; test: Occludin in H/R-treated bEND3 cells (Western blot, immunofluorescence); type: cell-based, mouse
Procedure: (§2) An immortalized mouse brain endothelial cell line (bEND 3) is purchased from American Type Culture Collection (ATCC, VA, USA) and cultured in Dulbecco's modified Eagle Medium (DMEM, ATCC) supplemented with 10% fetal bovine serum (ATCC). bEND 3 cells are seeded onto the luminal side of a filter (0.4 μm pore size; Corning, Lowell, MCA) coated with fibronectin (5 μg/ml) in 12-well plates for a transendothelial electrical resistance (TEER) test; and in 100-mm dishes for Western blot studies. Cell cultures are incubated at 37° C. in a 5%/95% mixture of CO2 and atmospheric air, and the medium is replaced every 3 days.
Peri-infarct cortical tissue is processed for protein analysis. Tissues are homogenized in T-per (Pierce, Rockford, Ill.) containing protease inhibitor cocktail (P8340, Sigma). Homogenates are centrifuged for 15 minutes at 13,000 g. 40 μg of total protein is separated on 8-12% gel and transferred onto polyvinylidene difluoride (Millipore, Mass., USA; PVDF) membranes at 300 mA for 2 hours. To measure the level of immunoglobulin, the membranes were incubated overnight at 4° C. with anti Rat IgG conjugated to biotin. bEND 3 cells are subjected to hypoxia/reperfusion for 9 hours and then lysed on ice in 100 μl of RIPA buffer. Cell lysated are boiled and then electrophoresed in 12% SDS-PAGE acrylamide gels, transferred onto PVDF membranes, and incubated for 1 hour in TBS-T (tris-buffered saline and 0.1% Tween 20) containing 5% bovine serum albumin (BSA). Membranes are then incubated overnight at 4° C. with primary antibodies against occludin (Invitrogen, Calif., USA; 1:1000), claudin-5 (Invitrogen; 1:1000), and ZO-1 (Invitrogen; 1:1000), washed in TBS-T, and incubated for 1 hour at room temperature with corresponding peroxidase-conjugated secondary antibodies (1:5000; KPL, Gaithersburg, Md.). All blots are stripped and re-incubated with β-actin antibodies (1:5000, Sigma) as a loading control. The peroxidase reaction is developed with an ECL-plus detection kit (Amersham BioScience, Piscataway, N.J.). Intensity of the bands is measured by an Image Gauge version. 4.0 program (FUJI Photo Film Co., Ltd).
The bEnd 3 cells grown to confluence on coverslips are subjected to the indicated treatments. […]
as §1

[4] = tested on: rats with MCAO induced by homologous blood clots; test: Delayed tPA to cause hemorrhage: embolic MCAO model of hemorrhagic transformation; type: in vivo, rat; details: recombinant tPA 10 mg/kg through the tail vein at 4.5 hours post MCAO-induction
Text: A focal thromboembolic model of cerebral ischemia is induced in rats by middle cerebral artery occlusion (MCAO) via the fibrin-rich clots technique under isoflurane anesthesia. Surgical anesthesia is induced with isoflurane (5% induction, 2% maintenance, […]). Rats are cannulated with a femoral artery catheter for measurement of arterial blood gases, pH (Ciba-Corning 248 pH/blood gas analyzer), blood glucose, hematocrit and mean arterial blood pressure. The body temperature of the animals is maintained at […] with a heating pad controlled by rectal thermistors. A closed cranial window is made in the right parietal skull (2 mm posterior, 6 mm lateral to bregma) for laser doppler probe placement. The rats are mounted on a modified stereotaxic frame equipped with a facemask. The right common carotid artery (CCA), the right internal carotid artery (ICA) and the right external carotid artery (ECA) are exposed by a ventral incision in throat. After surgical preparation of the right CCA and ligation of the pterygo-palatine artery, a PE10 catheter is inserted into the ECA. The tip of the catheter is placed close to the carotid bifurcation. To achieve thromboembolic occlusion of the right middle cerebral artery, 12 medium-sized fibrin rich clots suspended in phosphate with phosphate buffered saline (0.3 ml) are injected by a 1 ml syringe connected to the catheter. […]

[5] = tested on: bEND3 cells; test: Transendothelial electrical resistance (TEER) after hypoxia/reperfusion (H/R); type: cell-based, mouse; details: tPA 20 μ/ml; 6 hours hypoxia, 3 hours reoxygenation
Procedure: as §2
The electrical resistance across the membrane are measured using an Millicell ERS Voltohmmeter (Millipore, Billerica, Mass.). The extracellular matrix-treated Transwell inserts are placed in 12-well plates containing culture medium and then used to measure the background resistance. The resistance measurements of these blank filters are then subtracted from those of filters with cells. Values are shown as Q. based on culture inserts.
To mimic ischemia-like conditions in vitro, immortalized mouse brain endothelial (bEND3) cells were exposed to 6 hours of hypoxia and 3 hours of reoxygeneation with or without the administration of tPA at a dose of 20 μ/ml. Reoxygenation was initiated by adding glucose (4.5 g/L)-containing phenol red-free DMEM for 3 hours at 37° C. in 95% air and 5% CO2. The cells were treated with various concentrations progesterone for 24 hours before hypoxia/reperfusion (H/R). BBB integrity was evaluated by transendothelial membrane electrical resistance (TEER) measurement, MMP-9 activity, and the alteration of tight junction proteins following in vitro H/R injury.

For “tPA: serum protease acting specifically on serum plasminogen; also known as alteplase, available commercially as Activase”, the “Increase of IgG levels in ischemic cortex” value [1] was “up to 2 ×”, the MMP-9 levels [2] was “increased” and the “Detected levels of occludin (immunofluorescence)” value ([3]; bEND3 cells exposed to H/R and tPA for 9 hours, progesterone pretreatment) was “reduced”. For the same substance, the “Expression of occludin (Western blot)” value ([3]; bEND3 cells, tPA with H/R) was “markedly decreased”, the “Hemispheric enlargement and hemorrhage” value [4] was “significant hemispheric enlargement and hemorrhage” and the “TEER under H/R conditions” value [5] was “significantly decreased”.
